Holding throughout (experiment): Fermentation performance of commercial active dry yeasts in normal gravity corn mash
Format in all cases: cell-based, Saccharomyces cerevisiae

One assay has as its system active dry yeast “e”. Conditions: strain “e”. As for the experimental part: (§1) The effects of the defined urea plus salts-based yeast food on fermentation performance of seven commercial active dry yeasts currently used by the fuel alcohol industry (Bellisimi et al., 2005, Am. Soc. Brew. Chem. J. Vol. 63, pp. 107-112) and designated herein as strains “b”, “d”, “e”, “w”, “x”, “y”, and “z”, were assessed in normal gravity corn mash prepared as described in Example 1. The commercial active dry yeasts were assessed with the following corn mash supplanted as follows: (a) 8 mM urea (control), or (b) 1% yeast extract, or (c) 8 mM urea supplemented with the defined urea plus salts yeast food of the present invention. The fermentation methods were followed as outlined in Example 4. Fermentation rates were determined by repeated sampling and sample processing at specific time intervals as described in Example 1.

The subject of the next assay is active dry yeast “x”. Conditions: strain “x”. How it is done:
as §1

In the next assay the test system is active dry yeast “z”. The settings on record: strain “z”. As for the experimental part: as §1
The next assay concerns active dry yeast “w”. The settings on record: strain “w”. As for the experimental part:
as §1

A further assay concerns active dry yeast “d”. Conditions: strain “d”. How it is done:
as §1

For the next assay, the system named is active dry yeast “y”. The settings on record: strain “y”. As for the experimental part:
as §1

Where [1] appears, read: complete disappearance of 20 g of dissolved solids/100 mL.

Regarding `NC(N)=O` [urea], the Fermentation rate in the assay on active dry yeast “e” (normal gravity corn mash) came to 0.67 ± 0.01 g/100 mL/hr; in the assay on active dry yeast “x” (normal gravity corn mash) it was 0.80 ± 0.06 g/100 mL/hr; in the assay on active dry yeast “z” (normal gravity corn mash), 0.79 ± 0.01 g/100 mL/hr; in the assay with active dry yeast “w” (normal gravity corn mash), 0.82 ± 0.02 g/100 mL/hr; in the assay on active dry yeast “d” (normal gravity corn mash), 0.74 ± 0.03 g/100 mL/hr; in the assay on active dry yeast “y” (normal gravity corn mash) it was 0.83 ± 0.01 g/100 mL/hr. For the same compound, the Fermentation time in the assay on active dry yeast “e” (setting [1]) was 72 h; in the assay with active dry yeast “x” (setting [1]), 48 h; with active dry yeast “z” (setting [1]), 48 h; with active dry yeast “w” (setting [1]), 48 h; with active dry yeast “d” (setting [1]), 48 h; in the assay on active dry yeast “y” (setting [1]), 48 h.

The record behind these values is patent publication US20070190628A1, “Yeast food composition for fuel ethanol production” (priority 2006, published 2007).
